Reference: ChEMBL document CHEMBL1201862, “PubChem BioAssay data set” (2004)
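All cell lines were grown in 96-well plates and treated with compound for 48 hours. GI50 marks 50% less growth.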 Activity calls are given as the source filed them. Cut-off read from the data, not from the text of the source: active = GI50 up to about 1.1 µM and inactive = higher.

Key:
Experiment in all cases: inhibition of tumour cell growth, NCI panel, 48 h
U-251 = tested on: U-251
RPMI-8226 = tested on: RPMI-8226
MDA-MB-231 = tested on: MDA-MB-231
SR = tested on: SR
MOLT-4 = tested on: MOLT-4
TK-10 = tested on: TK-10
OVCAR-5 = tested on: OVCAR-5
HCT-15 = tested on: HCT-15
EKVX = tested on: EKVX
MDA-MB-435 = tested on: MDA-MB-435
786-0 = tested on: 786-0
SF-539 = tested on: SF-539
HL-60 = tested on: HL-60
OVCAR-3 = tested on: OVCAR-3
UO-31 = tested on: UO-31
IGROV-1 = tested on: IGROV-1
UACC-257 = tested on: UACC-257
SK-MEL-5 = tested on: SK-MEL-5
MCF7 = tested on: MCF7
SK-MEL-28 = tested on: SK-MEL-28

SMILES | GI50 (U-251) | GI50 (RPMI-8226) | GI50 (MDA-MB-231) | GI50 (SR) | GI50 (MOLT-4) | GI50 (TK-10) | GI50 (OVCAR-5) | GI50 (HCT-15) [µM] | GI50 (EKVX) | GI50 (MDA-MB-435) | GI50 (786-0) | GI50 (SF-539) | GI50 (HL-60) | GI50 (OVCAR-3) | GI50 (UO-31) | GI50 (IGROV-1) | GI50 (UACC-257) | GI50 (SK-MEL-5) | GI50 (MCF7) | GI50 (SK-MEL-28)
Cc1cc2nc(C=C(C(F)(F)F)C(F)(F)F)sc2cc1C | 0.871 µM (active) | 0.055 µM (active) | 2.82 µM (inactive) | 0.0923 µM (active) | 0.11 µM (active) | 2.34 µM (inactive) | 2.59 µM (inactive) | 1.71 | 2.15 µM (inactive) | 1.21 µM (inactive) | 0.316 µM (active) | 1.54 µM (inactive) | 0.482 µM (active) | 1.16 µM (inactive) | 2.53 µM (inactive) | 2.21 µM (inactive) | 4.55 µM (inactive) | 2.49 µM (inactive) | 2.63 µM (inactive) | 3.01 µM (inactive)
CSC(=S)Nc1cc(C)ccn1 | 67.8 µM (inactive) | 97.7 µM (inactive) | 33.1 µM (inactive) | 78.2 µM (inactive) | > 100 µM (inactive) | > 100 µM (inactive) | > 100 µM (inactive) | > 100 | > 100 µM (inactive) | > 100 µM (inactive) | 75.2 µM (inactive) | > 100 µM (inactive) | > 100 µM (inactive) | 40.6 µM (inactive) | > 100 µM (inactive) | 20.8 µM (inactive) | > 100 µM (inactive) | 16.7 µM (inactive) | > 100 µM (inactive) | > 100 µM (inactive)
CC(C)C1=CCC2C(=C1)CCC1C(C)(C(=O)O)CCCC21C (stereo not given) | > 100 µM (inactive) | 19.9 µM (inactive) | > 100 µM (inactive) | > 100 µM (inactive) | 63.1 µM (inactive) | > 100 µM (inactive) | > 100 µM (inactive) | > 100 | > 100 µM (inactive) | > 100 µM (inactive) | > 100 µM (inactive) | > 100 µM (inactive) | 14.2 µM (inactive) | > 100 µM (inactive) | 79.1 µM (inactive) | > 100 µM (inactive) | > 100 µM (inactive) | > 100 µM (inactive) | > 100 µM (inactive) | > 100 µM (inactive)
C/C=C/[P+](c1ccccc1)(c1ccccc1)c1ccccc1 | 0.102 µM (active) | 0.0413 µM (active) | 2.58 µM (inactive) | 0.381 µM (active) | 2.42 µM (inactive) | 0.787 µM (active) | 4.24 µM (inactive) | 25.5 | 0.296 µM (active) | 0.277 µM (active) | 7.33 µM (inactive) | 1.48 µM (inactive) | 0.78 µM (active) | 0.54 µM (active) | 26.7 µM (inactive) | 2.11 µM (inactive) | 0.295 µM (active) | 0.378 µM (active) | 1.18 µM (inactive) | 1.29 µM (inactive)
COc1ccc(/C=C2\N/C(=N/N)N=C2Cl)cc1 | > 100 µM (inactive) | > 100 µM (inactive) | > 100 µM (inactive) | > 100 µM (inactive) | > 100 µM (inactive) | > 100 µM (inactive) | > 100 µM (inactive) | > 100 | > 100 µM (inactive) | > 100 µM (inactive) | > 100 µM (inactive) | > 100 µM (inactive) | > 100 µM (inactive) | > 100 µM (inactive) | > 100 µM (inactive) | > 100 µM (inactive) | > 100 µM (inactive) | > 100 µM (inactive) | > 100 µM (inactive) | > 100 µM (inactive)
CN(C)Cc1cc(C(=O)/C=C/c2ccc(Cl)cc2Cl)cc(CN(C)C)c1O | 3.52 µM (inactive) | 3.85 µM (inactive) | 2.11 µM (inactive) | 4.03 µM (inactive) | 1.88 µM (inactive) | 11.5 µM (inactive) | 15.2 µM (inactive) | 3.17 | 6.18 µM (inactive) | 4.06 µM (inactive) | 3.77 µM (inactive) | 4.4 µM (inactive) | 1.96 µM (inactive) | 2.99 µM (inactive) | 2.07 µM (inactive) | 2.72 µM (inactive) | 5.11 µM (inactive) | 1.96 µM (inactive) | 2.33 µM (inactive) | 6.25 µM (inactive)
